“And” between values parts separate entries of the source, which are not always exact repeats. Identical values can stand only once. Toxic doses and inconclusive results are not listed. The calls were made as follows: active = survival T/C of 150% or more; inactive = T/C below 125% in these data. Peptide text beside a SMILES is read from it. * marks the point of attachment. Cbz = O=C(OCc1ccccc1)*
Test system: BDF1 mice, B16 melanoma ip, median survival T/C
Assay: NCI In Vivo Anticancer Drug Screen. Data for tumor model B16 Melanoma (intraperitoneal) in B6D2F1 (BDF1) mice
Conditions: endpoint: median survival time, higher = longer survival
Method in brief: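 Transplantable tumor model; survival or tumor size measured; reported as T/C, treated over vehicle control.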

[1] = dose: 25.0 mg/kg/injection, schedule: Q01DX009 (ip), vehicle: saline with Tween-80
[2] = dose: 50.0 mg/kg/injection, schedule: Q01DX009 (ip), vehicle: saline with Tween-80
[3] = dose: 100.0 mg/kg/injection, schedule: Q01DX009 (ip), vehicle: saline with Tween-80
[4] = dose: 100.0 mg/kg/injection, schedule: Q01DX009 (ip), vehicle: Klucel (hydroxypropylcellulose) (HPC)
[5] = dose: 200.0 mg/kg/injection, schedule: Q01DX009 (ip), vehicle: Klucel (hydroxypropylcellulose) (HPC)
[6] = dose: 50.0 mg/kg/injection, schedule: Q01DX009 (ip), vehicle: Klucel (hydroxypropylcellulose) (HPC)
[7] = dose: 100.0 mg/kg/injection, schedule: Q01DX009 (ip), vehicle: saline
[8] = dose: 200.0 mg/kg/injection, schedule: Q01DX009 (ip), vehicle: saline
[9] = dose: 400.0 mg/kg/injection, schedule: Q01DX009 (ip), vehicle: saline
[10] = dose: 100.0 mg/kg/injection, schedule: Q04DX003 (ip), vehicle: Klucel (hydroxypropylcellulose) (HPC)
[11] = dose: 200.0 mg/kg/injection, schedule: Q04DX003 (ip), vehicle: Klucel (hydroxypropylcellulose) (HPC)
[12] = dose: 400.0 mg/kg/injection, schedule: Q04DX003 (ip), vehicle: Klucel (hydroxypropylcellulose) (HPC)

Measured: T/C

CCCSc1ncnc2nc[nH]c12
inactive: dose: 12.5 mg/kg/injection, schedule: Q01DX009 (ip), vehicle: saline with Tween-80 102 % of control | [1] 102 % of control | [2] 97 % of control and 115 % of control | [3] 107 % of control

O=c1c2ccccc2[nH]c(=S)n1C1CCCCC1
inactive: [4] 90 % of control | [5] 90 % of control

NC(N)=Nc1ccc(C(=O)O)cc1
inactive: dose: 33.0 mg/kg/injection, schedule: Q01DX009 (ip), vehicle: saline with Tween-80 100 % of control | [2] 96 % of control | dose: 75.0 mg/kg/injection, schedule: Q01DX009 (ip), vehicle: saline with Tween-80 96 % of control

Cc1ccc(S(=O)(=O)NC(=O)C2C(=O)CC3(CCCCC3)CC2=O)cc1
inactive: dose: 25.0 mg/kg/injection, schedule: Q01DX009 (ip), vehicle: Klucel (hydroxypropylcellulose) (HPC) 97 % of control | [6] 100 % of control and 111 % of control | [4] 96 % of control and 113 % of control | [5] 94 % of control

ClCC[Se](Cl)(Cl)c1ccccc1
inactive: dose: 0.78 mg/kg/injection, schedule: Q01DX009 (ip), vehicle: saline 96 % of control | dose: 1.56 mg/kg/injection, schedule: Q01DX009 (ip), vehicle: saline 105 % of control | dose: 3.12 mg/kg/injection, schedule: Q01DX009 (ip), vehicle: saline 113 % of control

O=S(=O)(c1ccc(Cl)cc1)c1ccc(Cl)cc1
inactive: dose: 100.0 mg/kg/injection, schedule: Q04DX003 (ip), vehicle: saline with Tween-80 100 % of control | dose: 200.0 mg/kg/injection, schedule: Q04DX003 (ip), vehicle: saline with Tween-80 97 % of control | dose: 400.0 mg/kg/injection, schedule: Q04DX003 (ip), vehicle: saline with Tween-80 100 % of control

CCOC(OCC)C(=O)NNC(C)C
inactive: dose: 6.25 mg/kg/injection, schedule: Q01DX009 (ip), vehicle: saline 105 % of control | dose: 12.5 mg/kg/injection, schedule: Q01DX009 (ip), vehicle: saline 111 % of control | dose: 50.0 mg/kg/injection, schedule: Q01DX009 (ip), vehicle: saline 100 % of control

CC1(C)N=C(N)N=C(N)N1c1ccc(Cl)c(Cl)c1
inactive: dose: 6.25 mg/kg/injection, schedule: Q01DX009 (ip), vehicle: Klucel (hydroxypropylcellulose) (HPC) 117 % of control | dose: 6.25 mg/kg/injection, schedule: Q04DX003 (ip), vehicle: Klucel (hydroxypropylcellulose) (HPC) 102 % of control | dose: 12.5 mg/kg/injection, schedule: Q04DX003 (ip), vehicle: Klucel (hydroxypropylcellulose) (HPC) 103 % of control | dose: 25.0 mg/kg/injection, schedule: Q04DX003 (ip), vehicle: Klucel (hydroxypropylcellulose) (HPC) 114 % of control | dose: 50.0 mg/kg/injection, schedule: Q04DX003 (ip), vehicle: Klucel (hydroxypropylcellulose) (HPC) 116 % of control

COC(=O)C1CCCN1C(=O)C(CCCCNC(=O)OCc1ccccc1)NC(=O)OCc1ccccc1 (configuration not stated) (Cbz-Lys(Cbz)-Pro-OMe; configuration not given here)
inactive: [1] 94 % of control | [2] 98 % of control | [3] 112 % of control | dose: 200.0 mg/kg/injection, schedule: Q01DX009 (ip), vehicle: saline with Tween-80 108 % of control

CCN(C=O)CC
inactive: [7] 117 % of control | [8] 115 % of control | [9] 107 % of control

OC1COCOC1 (tested in a mixture with another compound)
inactive: [7] 115 % of control | [8] 106 % of control | [9] 106 % of control

CCCc1c(C)[nH]c2ccccc12
inactive: [10] 94 % of control | [11] 100 % of control | [12] 88 % of control

CCN(CC)CCCCCOC(=O)c1ccccc1
inactive: [6] 112 % of control | [4] 93 % of control | [5] 103 % of control

O=C1CC2(C(=O)N1CN1CCCCC1)c1ccccc1-c1ccccc12
inactive: dose: 12.5 mg/kg/injection, schedule: Q01DX009 (ip), vehicle: Klucel (hydroxypropylcellulose) (HPC) 114 % of control | [6] 112 % of control | [4] 112 % of control | [5] 112 % of control

CCOC(=O)NC(C(=O)OC)C(=O)OC
inactive: [10] 95 % of control | [5] 93 % of control | [11] 97 % of control | dose: 400.0 mg/kg/injection, schedule: Q01DX009 (ip), vehicle: Klucel (hydroxypropylcellulose) (HPC) 87 % of control | [12] 90 % of control

— PubChem BioAssay AID192 (DTP/NCI, 2004)
